# Source: patent publication US20130296427A1, “NERAMEXANE FOR THE TREATMENT OR PREVENTION OF TINNITUS RELATED WITH STRESS OR ACUTE HEARING LOSS” (MERZ PHARMA GmbH & CO. KGaA, priority 2011, published 2013)
# Tested on: subjects with tinnitus caused by acute hearing loss, stress and other reasons
# Assay: Two double-blind, randomized, placebo-controlled 17-week studies of neramexane mesylate in tinnitus; change in TBF-12 total score
# Format: in vivo, human
# Details: FAS-LOCF; for Change in the TBF-12 total score from baseline to Week 17/EOT, mean (SD): neramexane mesylate 50 or 75 mg/d, 17 weeks; for LSmean [ner − plac], estimated difference Neramexane − Placebo in change of TBF-12 total score, adjusted for covariates from ANCOVA: Week 17/EOT, negative = superior to placebo
# Description: The objective was to assess the efficacy of neramexane as a treatment for tinnitus. The primary objectives of these two independent 17 weeks double-blind, randomized placebo-controlled studies were to compare the efficacy, tolerability and safety of neramexane mesylate at two different, weight-adapted dosages (50 or 75 mg/d) with placebo in subjects with tinnitus caused acute hearing loss, stress and other reasons.
# In two independent, double-blind, multicenter, randomized, placebo-controlled, parallel-group studies, the efficacy of neramexane in subjects suffering from tinnitus caused by acute hearing loss, stress and other reasons were assessed.
# In both studies, subjects were treated for 17 weeks with neramexane or placebo including a four-resp. five-week up-titration period, depending on study drug dose.
# Patients with a target daily dose of 50 mg neramexane mesylate (<90 kg body weight) were to reach steady state after four weeks, patients with a target total daily dose of 75 mg neramexane mesylate 90 kg body weight) were to reach steady state after five weeks of treatment. For patients who experienced dose limiting adverse events with the 75 mg dose, the dosage was reduced by switching the patient to 50 mg/day. Patients unable to tolerate a minimum dosage of 50 mg/day discontinued.
# Patients' eligibility for the studies was evaluated via a check of inclusion/exclusion criteria. The subject completed a Tinnitus-Beeinträchtigungs-Fragebogen (TBF-12=Tinnitus Handicap Inventory (THI-12)) (i.e., a 12-item modified and validated version (Greimel K V et al., Tinnitus-Beeinträchtigungs-Fragebogen (TBF-12). Manual. Frankfurt am Main: Swets & Zeitlinger B.V.; 2000) of the 25-item Tinnitus Handicap Inventory or THI (Newman C W, et al. Development of the Tinnitus Handicap Inventory. Arch Otolaryngol Head Neck Surg 1996; 122(2): 143-148; Newman C W, et al. Psychometric adequacy of the Tinnitus Handicap Inventory (THI) for evaluating treatment outcome. J Am Acad Audiol 1998; 9(2): 153-160.)). The TBF-12 items can be grouped in 2 factorial scores: an emotional-cognitive and a functional-communicational factor. At Visit 1 patients also completed a Tinnitus Rating Scale (TRS, Likert scores on Tinnitus Loudness, Tinnitus Impact on Life, and Tinnitus Annoyance), and the Hospital Anxiety and Depression Scale Audiology/psychoacoustic measurements were performed unless results from previous examinations performed no more than one year prior to Screening were available.
# Neramexane mesylate immediate release tablets (12.5 mg and 25 mg, the manufacture thereof being disclosed in WO 2009/033649, whose respective content is incorporated herein by reference) and matching placebo tablets are administered as film coated tablets.
# Primary Outcome • The change in TBF-12 total score from baseline (Visit 2) to the endpoint visit (Visit 7, i.e. Week 17 or end of treatment) was the primary efficacy endpoint in these studies.
# All efficacy analyses were performed on the full analysis set (FAS) using the last-observation-carried-forward (LOCF) approach. For sensitivity purposes an analysis of the per-protocol set and of observed cases was performed additionally. All statistical tests used for testing the primary efficacy (confirmatory testing) and secondary efficacy criteria (exploratory), and all other statistical tests used for exploratory analyses were two-sided hypothesis tests performed at the 5% significance level. For all variables standard descriptive statistics were calculated.
# Change from baseline (Visit 2) to Week 17 in TBF-12 total score was analyzed using an ANCOVA model with treatment group, gender and country as factors and baseline TBF-12 total score as covariate.
smiles,measurement,setting,value
"CC1(C)CC(C)(C)CC(C)(N)C1 [Neramexane, 1-amino-1,3,3,5,5-pentamethylcyclohexane]","Change in the TBF-12 total score from baseline to Week 17/EOT, mean (SD)","tinnitus caused by acute hearing loss, N=34",34/−3.1 ± 5.0
same,"LSmean [ner − plac], estimated difference Neramexane − Placebo in change of TBF-12 total score, adjusted for covariates from ANCOVA","tinnitus caused by acute hearing loss, P-value 0.0162",−3.9
same,"Change in the TBF-12 total score from baseline to Week 17/EOT, mean (SD)","tinnitus caused by other reasons, N=323",323/−2.4 ± 4.1
same,"LSmean [ner − plac], estimated difference Neramexane − Placebo in change of TBF-12 total score, adjusted for covariates from ANCOVA","tinnitus caused by other reasons, P-value 0.5969",0.2
same,"Change in the TBF-12 total score from baseline to Week 17/EOT, mean (SD)","tinnitus caused by stress, N=41",41/−3.4 ± 4.2
same,"LSmean [ner − plac], estimated difference Neramexane − Placebo in change of TBF-12 total score, adjusted for covariates from ANCOVA","tinnitus caused by stress, P-value 0.0094",−2.3
